{"source": "patent US20260053861A1", "about": "“CELL COMPOSITIONS AND METHODS OF USING THE SAME” (THE REGENTS OF THE UNIVERSITY OF CALIFORNIA, priority 2022, published 2026)", "note": "Where a name gives a salt, the structure may show the parent alone.", "data": [{"tested_on": "hPSC-SCs", "conditions": "not given", "values": [{"smiles": "CC(C)c1cccc(C(C)C)c1O", "note": "[Propofol]", "z.score.t": "−0.411"}, {"smiles": "C[C@@H]1O[C@@H](O[C@@H]2C=C3CC[C@@H]4[C@H](CC[C@]5(C)[C@@H](c6ccc(=O)oc6)CC[C@]45O)[C@@]3(C)CC2)[C@H](O)[C@H](O)[C@H]1O", "note": "[Proscillaridin A]", "z.score.t": "−1.543"}, {"smiles": "CC[C@@H](C)C(=O)O[C@H]1[C@H](O)[C@H]2[C@@H](CN3C[C@@H](C)CC[C@H]3[C@@]2(C)O)[C@@H]2C[C@]34O[C@]5(O)[C@@H](OC(=O)[C@@](C)(O)CC)CC[C@@]3(C)[C@@H]5[C@@H](OC(C)=O)[C@@H](OC(C)=O)[C@H]4[C@@]21O", "note": "[Protoveratrine A]", "z.score.t": "−0.3319"}, {"smiles": "CN1[C@@H]2CCC[C@H]1CC(=O)C2.Cl", "note": "[Pseudopelletierine hydrochloride]", "z.score.t": "−0.6864"}, {"smiles": "Cc1ncc(CO)c(CO)c1O.Cl", "note": "[Pyridoxine hydrochloride]", "z.score.t": "−0.5337"}, {"smiles": "CCC1(CC)C(=O)C=CNC1=O", "note": "[Pyrithyldione]", "z.score.t": 0.7158}, {"smiles": "O.O.O=c1c(O)c(-c2ccc(O)c(O)c2)oc2cc(O)cc(O)c12", "note": "[Quercetine dihydrate]", "z.score.t": 1.371}, {"smiles": "COc1ccc2c3c([nH]c2c1)[C@H]1C[C@H]2[C@H](C[C@@H](O)[C@H](OC)[C@H]2C(=O)O)CN1CC3.Cl", "note": "[Reserpinic acid hydrochloride]", "z.score.t": "−0.4278"}]}, {"tested_on": "hPSC-SCs", "conditions": "HTS viability of hPSC-SCs in the presence of 30 mM glucose; Prestwick library; Table S4", "values": [{"smiles": "CC(C)(Sc1cc(C(C)(C)C)c(O)c(C(C)(C)C)c1)Sc1cc(C(C)(C)C)c(O)c(C(C)(C)C)c1", "note": "[Probucol]", "z.score.t": 0.1344}, {"smiles": "CCN(CC)CCNC(=O)c1ccc(N)cc1", "note": "[Procainamide hydrochloride]", "z.score.t": "−0.2904"}, {"smiles": "CCN(CC)CCOC(=O)c1ccc(N)cc1", "note": "[Procaine hydrochloride]", "z.score.t": 0.5587}, {"smiles": "CNNCc1ccc(C(=O)NC(C)C)cc1", "note": "[Procarbazine hydrochloride]", "z.score.t": "−0.01802"}, {"smiles": "CN1CCN(CCCN2c3ccccc3Sc3ccc(Cl)cc32)CC1", "note": "[Prochlorperazine dimaleate]", "z.score.t": "−0.7775"}, {"smiles": "OC(CCN1CCCC1)(c1ccccc1)C1CCCCC1", "note": "(centres unmarked) [Procyclidine hydrochloride]", "z.score.t": "−0.0788"}, {"smiles": "CC(=O)[C@H]1CC[C@H]2[C@@H]3CCC4=CC(=O)CC[C@]4(C)[C@H]3CC[C@]12C", "note": "[Progesterone]", "z.score.t": 0.1767}, {"smiles": "CCCN(CCC)C(=O)C(CCC(=O)O)NC(=O)c1ccccc1", "note": "(centres unmarked) [Proglumide]", "z.score.t": "−0.8991"}, {"smiles": "[H]/N=C(\\N/C(=N/[H])Nc1ccc(Cl)cc1)NC(C)C", "note": "[Proguanil hydrochloride]", "z.score.t": "−0.1187"}, {"smiles": "CN(C)CCCN1c2ccccc2Sc2ccccc21", "note": "[Promazine hydrochloride]", "z.score.t": "−1.845"}, {"smiles": "CC(CN1c2ccccc2Sc2ccccc21)N(C)C", "note": "(centres unmarked) [Promethazine hydrochloride]", "z.score.t": 1.578}, {"smiles": "CC(C)NCC(O)c1ccc2ccccc2c1", "note": "(centres unmarked) [Pronethalol hydrochloride]", "z.score.t": "−0.4684"}, {"smiles": "CCCNCC(O)COc1ccccc1C(=O)CCc1ccccc1", "note": "(centres unmarked) [Propafenone hydrochloride]", "z.score.t": 1.211}, {"smiles": "CC(C)[N+](C)(CCOC(=O)C1c2ccccc2Oc2ccccc21)C(C)C", "note": "[Propantheline bromide]", "z.score.t": 0.9525}, {"smiles": "CCCOc1ccc(C(=O)OCCN(CC)CC)cc1N", "note": "[Proparacaine hydrochloride]", "z.score.t": 0.7158}, {"smiles": "CC[N+](C)(CC)CCC[n+]1c(-c2ccccc2)c2cc(N)ccc2c2ccc(N)cc21.[I-].[I-]", "note": "[Propidium iodide]", "z.score.t": "−0.7567"}, {"smiles": "CCCOc1cc(N)ccc1C(=O)OCCN(CC)CC", "note": "[Propoxycaine hydrochloride]", "z.score.t": "−0.8229"}, {"smiles": "CC(C)NCC(O)COc1cccc2ccccc12", "note": "(centres unmarked) [Propranolol hydrochloride]", "z.score.t": "−1.412"}, {"smiles": "CCCc1cc(=O)[nH]c(=S)[nH]1", "note": "[Propylthiouracil]", "z.score.t": "−0.2904"}, {"smiles": "CNCCCC1c2ccccc2C=Cc2ccccc21", "note": "[Protriptyline hydrochloride]", "z.score.t": "−0.3678"}, {"smiles": "CC(O)Cn1cnc2c1c(=O)n(C)c(=O)n2C", "note": "(centres unmarked) [Proxyphylline]", "z.score.t": "−0.3023"}, {"smiles": "COc1ccc(C[C@H](N)C(=O)N[C@H]2[C@@H](O)[C@H](n3cnc4c(N(C)C)ncnc43)O[C@@H]2CO)cc1", "note": "[Puromycin dihydrochloride]", "z.score.t": "−2.056"}, {"smiles": "NC(=O)c1cnccn1", "note": "[Pyrazinamide]", "z.score.t": 1.73}, {"smiles": "COc1ccc(CN(CCN(C)C)c2ccccn2)cc1", "note": "[Pyrilamine maleate]", "z.score.t": 0.07016}, {"smiles": "CCc1nc(N)nc(N)c1-c1ccc(Cl)cc1", "note": "[Pyrimethamine]", "z.score.t": 0.5856}, {"smiles": "CCN(CC)CCCC(C)Nc1c2ccc(Cl)cc2nc2ccc(OC)cc12", "note": "(centres unmarked) [Quinacrine dihydrochloride dihydrate]", "z.score.t": "−1.898"}, {"smiles": "CCOC(=O)[C@H](CCc1ccccc1)N[C@@H](C)C(=O)N1Cc2ccccc2C[C@H]1C(=O)O", "note": "[Quinapril HCl]", "z.score.t": "−0.1464"}, {"smiles": "CCC1NC(=O)c2cc(S(N)(=O)=O)c(Cl)cc2N1", "note": "(centres unmarked) [Quinethazone]", "z.score.t": "−0.9264"}, {"smiles": "O=C(O)[C@]1(O)C[C@@H](O)[C@@H](O)[C@H](O)C1", "note": "[Quinic acid]", "z.score.t": 0.5268}, {"smiles": "C=C[C@H]1C[N@@]2CC[C@H]1C[C@@H]2[C@@H](O)c1ccnc2ccc(OC)cc12", "note": "[Quinidine hydrochloride monohydrate]", "z.score.t": "−0.6093"}, {"smiles": "CC(=O)SCC(Cc1ccccc1)C(=O)NCC(=O)OCc1ccccc1", "note": "(centres unmarked) [Racecadotril]", "z.score.t": "−0.1853"}, {"smiles": "O=C(c1ccc(OCCN2CCCCC2)cc1)c1c(-c2ccc(O)cc2)sc2cc(O)ccc12", "note": "[Raloxifene hydrochloride]", "z.score.t": "−1.825"}, {"smiles": "CCOC(=O)[C@H](CCc1ccccc1)N[C@@H](C)C(=O)N1[C@H](C(=O)O)C[C@@H]2CCC[C@@H]21", "note": "[Ramipril]", "z.score.t": "−0.5351"}, {"smiles": "CNC(=C[N+](=O)[O-])NCCSCc1ccc(CN(C)C)o1", "note": "[Ranitidine hydrochloride]", "z.score.t": 0.4486}, {"smiles": "COc1ccccc1OCC(O)CN1CCN(CC(=O)Nc2c(C)cccc2C)CC1", "note": "(centres unmarked) [Ranolazine]", "z.score.t": 1.442}, {"smiles": "COC(=O)[C@H]1[C@H]2C[C@H]3c4[nH]c5ccccc5c4CCN3C[C@H]2CC[C@@H]1O", "note": "[Rauwolscine hydrochloride]", "z.score.t": 1.384}, {"smiles": "CCN1CCC[C@H]1CNC(=O)c1c(OC)ccc(Br)c1OC", "note": "[Remoxipride Hydrochloride]", "z.score.t": 0.05395}, {"smiles": "CCOc1cc(CC(=O)N[C@@H](CC(C)C)c2ccccc2N2CCCCC2)ccc1C(=O)O", "note": "[Repaglinide]", "z.score.t": "−1.216"}, {"smiles": "COC(=O)[C@H]1[C@H]2C[C@@H]3c4[nH]c5cc(OC)ccc5c4CCN3C[C@H]2C[C@@H](OC(=O)/C=C/c2cc(OC)c(OC)c(OC)c2)[C@@H]1OC", "note": "[Rescinnamin]", "z.score.t": 0.006455}, {"smiles": "COC(=O)[C@H]1[C@H]2C[C@@H]3c4[nH]c5cc(OC)ccc5c4CCN3C[C@H]2C[C@@H](OC(=O)c2cc(OC)c(OC)c(OC)c2)[C@@H]1OC", "note": "[Reserpine]", "z.score.t": "−1.042"}, {"smiles": "Oc1ccc(C=Cc2cc(O)cc(O)c2)cc1", "note": "[Resveratrol]", "z.score.t": 0.9702}, {"smiles": "CC1=C(/C=C/C(C)=C/C=C/C(C)=C/C(=O)O)C(C)(C)CCC1", "note": "[Retinoic acid]", "z.score.t": 1.751}, {"smiles": "NC(=O)c1ncn([C@@H]2O[C@H](CO)[C@@H](O)[C@H]2O)n1", "note": "[Ribavirin]", "z.score.t": 2.03}, {"smiles": "Cc1cc2nc3c(=O)[nH]c(=O)nc-3n(C[C@H](O)[C@H](O)[C@H](O)CO)c2cc1C", "note": "[Riboflavine]", "z.score.t": 1.211}, {"smiles": "NC[C@H]1O[C@H](O[C@H]2[C@H](O[C@@H]3O[C@H](CO)[C@@H](O)[C@H]3O)[C@@H](O)[C@H](N)C[C@@H]2N)[C@H](N)[C@@H](O)[C@@H]1O", "note": "[Ribostamycin sulfate salt]", "z.score.t": "−0.7757"}]}]}
